The source of these data is patent US7319015B2, “Methods and compositions for using alveolar macrophage phospholipase A2” (The Regents of The University of Michigan, priority 2004, dated 2008).

The target in data set [1] is T1, 1-O-acylceramide synthase (LPLA2) (Bos taurus, UniProt Q8WMP9).
T1 sequence (Q8WMP9 30-407): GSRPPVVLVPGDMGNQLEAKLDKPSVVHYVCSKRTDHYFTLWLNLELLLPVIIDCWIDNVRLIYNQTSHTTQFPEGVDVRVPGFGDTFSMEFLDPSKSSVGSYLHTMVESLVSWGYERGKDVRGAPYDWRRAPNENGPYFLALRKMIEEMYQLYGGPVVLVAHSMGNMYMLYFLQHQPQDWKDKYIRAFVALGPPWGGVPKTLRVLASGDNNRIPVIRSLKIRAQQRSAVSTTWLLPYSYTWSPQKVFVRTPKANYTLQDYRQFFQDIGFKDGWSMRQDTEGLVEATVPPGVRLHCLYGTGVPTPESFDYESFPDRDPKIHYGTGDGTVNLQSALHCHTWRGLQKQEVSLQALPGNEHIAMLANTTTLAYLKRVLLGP
The following applies: initial characterization of the enzyme, cited from earlier work.

Data set [2] has as its target T2, LPLA2 (Canis lupus familiaris, UniProt Q6XPZ3).
T2 construct: endogenous in cells; host or cells: MDCK cell homogenate
T2 sequence (Q6XPZ3 32-408): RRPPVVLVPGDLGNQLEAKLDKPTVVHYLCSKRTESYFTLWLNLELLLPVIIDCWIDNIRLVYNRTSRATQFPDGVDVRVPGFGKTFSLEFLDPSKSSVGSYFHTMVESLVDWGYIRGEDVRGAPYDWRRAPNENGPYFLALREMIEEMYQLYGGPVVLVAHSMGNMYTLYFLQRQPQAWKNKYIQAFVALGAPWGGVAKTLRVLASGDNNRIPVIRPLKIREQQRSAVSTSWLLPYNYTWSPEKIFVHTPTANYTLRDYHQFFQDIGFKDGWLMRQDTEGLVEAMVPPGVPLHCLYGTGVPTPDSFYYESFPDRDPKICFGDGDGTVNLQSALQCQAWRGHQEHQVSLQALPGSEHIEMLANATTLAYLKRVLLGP
Description: LPLA2 (transacylase/phospholipase A2) activity assay in MDCK cell homogenates with cationic amphiphilic drugs. The data set is classed as biochemical. The following applies: FIG. 1A; for inhibition of LPLA2 transacylase and phospholipase A2 activity (in words): enzyme assay for LPLA2 activity. The procedure:
(§1) Phospholipids, DOPC and PE, and N-acetylsphingosine (NAS) were used in the assay system as a donor and an acceptor, respectively, of an acyl group. The transacylase activity was determined by analysis of 1-O-acyl-N-acetylsphingosine formation rate. The reaction mixture consisted of 45 mM sodium citrate (pH 4.5), 10 μg/ml bovine serum albumin, 40 μM NAS incorporated into phospholipid liposomes (DOPC/PE/dicetyl phosphate/NAS (5:2:1:2 in molar ratio)) and soluble fraction (0.7-10 μg) in a total volume of 500 μl. The reaction was initiated by adding the soluble fraction, kept for 5-60 min at 37° C. and terminated by adding 3 ml of chloroform/methanol (2:1) plus 0.3 ml of 0.9% (w/v) NaCl. The mixture was centrifuged for 5 min at room temperature. The resultant lower layer was transferred into another glass tube and dried down under a stream of nitrogen gas. The dried lipid dissolved in 40 μl of chloroform/methanol (2:1) was applied on an HPTLC plate and developed in a solvent system consisting of chloroform/acetic acid (9:1). The plated was dried down and soaked in 8% (w/v) CuSO4, 5H2O, 6.8% (v/v) H3PO4, 32% (v/v) methanol. The uniformly wet plate was briefly dried down by a hair dryer and charred for 15 min in a 150° C. oven. The plate was scanned and the amount of the reaction products was estimated by NIH-image 1.62.
Res., 35:1232-1240, 1994]. PDMP and its related homologs contain a hydrophilic domain with a substituted nitrogen and a hydrophobic aromatic group, functional groups that are typical of CADs in general.

For data set [3], the system named is MDCK cells.
The test system of data set [4] is MDCK cells. The following applies: MDCK cells treated at the IC50 for transacylase inhibition, 7 days, FIG. 2.
The subject of another data set is CHO cells. The following applies: CHO cells (Rosenwald and Pagano 1994); cited from earlier work.
In data set [5] the target is LPLA2 (Rattus norvegicus, UniProt Q675A5). The following applies: rat AM soluble fraction 2.42 μg protein/ml, citrate buffer pH 4.5, 40 μM NAS, different concentrations of MJ33. The procedure:
as §1, with “The uniformly wet plate was briefly dried down by a hair dryer and charred for 15 min in a 150° C. oven. The plate was scanned and the amount of the reaction products was estimated by NIH-image 1.62.” left out
(§2) In the studies the effect of MJ33 on LPLA2 transacylation activity in rat alveolar macrophages and c-myc-tagged mouse LPLA2 transfected COS 7 cells was also determined. […] The enzyme activity was determined as described in the Example 1.

Another data set deals with c-myc-tagged mouse LPLA2 (Mus musculus, UniProt Q8VEB4). The following applies: soluble fraction of LPLA2 transfected COS 7 cells 2.26 μg protein/ml, citrate buffer pH 4.5, 40 μM NAS. How it is done: as §1, with “The uniformly wet plate was briefly dried down by a hair dryer and charred for 15 min in a 150° C. oven. The plate was scanned and the amount of the reaction products was estimated by NIH-image 1.62.” left out
Chain of c-myc-tagged mouse LPLA2 (Q8VEB4 34-412): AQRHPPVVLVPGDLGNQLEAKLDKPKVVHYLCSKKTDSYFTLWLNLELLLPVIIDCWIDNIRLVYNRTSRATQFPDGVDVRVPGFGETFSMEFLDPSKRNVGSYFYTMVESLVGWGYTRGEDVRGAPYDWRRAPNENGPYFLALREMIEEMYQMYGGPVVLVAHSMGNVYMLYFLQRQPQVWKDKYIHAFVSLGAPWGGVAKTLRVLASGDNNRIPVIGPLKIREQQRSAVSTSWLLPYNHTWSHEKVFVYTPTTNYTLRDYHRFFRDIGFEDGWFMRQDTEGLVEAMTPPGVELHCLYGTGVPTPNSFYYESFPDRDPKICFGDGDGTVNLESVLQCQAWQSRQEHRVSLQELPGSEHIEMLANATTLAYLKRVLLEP
as §2

In data set [6] the test system is surfactant phospholipid catabolism. As to conditions: rats treated with MJ33 (Fisher et al. 2001); cited from earlier work.
The subject of data set [7] is dipalmitoyl-phosphatidylcholine degradation. As to conditions: murine lung, previously demonstrated; cited from earlier work.

Values joined by “and” are separate entries in the source; they are usually repeats but may differ in a detail not shown here. Equal values may be shown once. “Also recorded” adds a separate entry of the source. Read-outs that look alike come from different tables or passages of the source.

Chain of LPLA2 (Rattus norvegicus, UniProt Q675A5) (Q675A5 34-413): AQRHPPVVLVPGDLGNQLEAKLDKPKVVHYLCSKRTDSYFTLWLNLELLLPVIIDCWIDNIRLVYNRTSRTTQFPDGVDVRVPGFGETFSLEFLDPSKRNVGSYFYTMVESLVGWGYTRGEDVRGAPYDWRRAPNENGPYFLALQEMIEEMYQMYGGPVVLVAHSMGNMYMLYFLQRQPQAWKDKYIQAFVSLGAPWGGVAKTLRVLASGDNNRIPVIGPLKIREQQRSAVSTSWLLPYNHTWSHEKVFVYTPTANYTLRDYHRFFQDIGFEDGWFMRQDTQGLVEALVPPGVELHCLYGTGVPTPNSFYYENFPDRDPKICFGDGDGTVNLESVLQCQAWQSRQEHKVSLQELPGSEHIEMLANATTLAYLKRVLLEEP

For the molecule `O=C1O/C(=C/Br)CCC1c1cccc2ccccc12` (centres unmarked) [bromoenollactone], the “inhibition of enzyme activity” value was “did not inhibit” in data set [1] and “insensitive” in [1] (listed as bromoenol lactone).

With `CCCCc1oc2ccccc2c1C(=O)c1cc(I)c(OCCN(CC)CC)c(I)c1` [Amiodarone, amiodarone], the “inhibition of LPLA2 transacylase and phospholipase A2 activity (in words)” value on LPLA2 [2] is listed as “comparable to but greater than PDMP”.

With `CCCCC/C=C\C/C=C\C/C=C\C/C=C\CCCC(=O)C(F)(F)F` [nonadecyltetraenyl trifluoromethyl ketone], in [1], the “inhibition of enzyme activity” value was “insensitive; also recorded: did not inhibit”.

On to `CCCCCCCCCC(=O)N[C@H](CN1CCOCC1)[C@H](O)c1ccccc1` [PDMP, D-threo-1phenyl-2-decanoylamino-3-morphilino-propanol], for which the IC50 on LPLA2 [2] (enzyme assay for LPLA2 (transacylase) activity, read-out: IC50 / half maximal inhibition of LPLA2 activity) was 30 µM and 50 µM. In addition, the “inhibition of LPLA2 transacylase and phospholipase A2 activity (in words)” value against LPLA2 [2] is “potently inhibited”. Further, in the data set on MDCK cells [3] (MDCK cells incubated for up to 7 days, 15 μM, FIG. 1B), the total phospholipid content entry was “Modest, but significant increases”. Further, the “content of phosphatidylethanolamine and phosphatidylcholine” value in the data set on MDCK cells [3] (MDCK cells, time-dependent changes, FIG. 1C/1D) was “increased”. Also, in the data set on MDCK cells [4], the “lysosomal phospholipid inclusions by electron microscopy” value is listed as “obvious lysosomal phospholipid inclusions”. Besides, the “induction of lysosomal lamellar inclusions” value in the data set with CHO cells is on record as “induced lysosomal lamellar inclusions”.

For `CCCCCCCCCCCCCCCCOCC(COCC(F)(F)F)OP(=O)(O)OC` (centres unmarked) [MJ33], the “inhibition of transacylase activity” value against LPLA2 [5] is listed as “concentration dependent inhibition”; at c-myc-tagged mouse LPLA2, “comparable response”. The “inhibition of surfactant phospholipid catabolism” value in data set [6] was 40 to 50%. Also, the “block of dipalmitoyl-phosphatidylcholine degradation” value in data set [7] was “block the majority”.
